As a reminder, the bioavailability is dose-corrected exposure relative to a reference, in per cent. What is called half-life is how long it takes for the measured level to halve. As a reminder, the clearance is a measure of how efficiently the substance is removed, as volume per time. What is called Cmax is the peak of the concentration-time curve. By Tmax is commonly meant the time from dosing to the highest level. One may read the AUC as the area under the concentration-time curve, a measure of exposure. By CL/F is commonly meant the apparent clearance, not corrected for the fraction that reaches the circulation.

A short description of series [1]: Oral Bioavailability in rat. It counts as ADME, organism-based. Particulars: in vivo.
Series [2] can be described thus: Half life in rat. In kind it is ADME. Particulars: in vivo.
Series [3] is described as follows: Half life in dog at 0.5 mg/kg, iv measured after 0.083 hrs by liquid chromatography tandem mass spectrometry analysis. The conditions noted are these: in vivo. In kind it is ADME, organism-based, Canis lupus familiaris.
The nature of series [4]: Half life in rat at 1 mg/kg, iv measured after 0.083 hrs by liquid chromatography tandem mass spectrometry analysis. In kind it is ADME, organism-based. Particulars: in vivo.
Series [5] can be described thus: Oral bioavailability in rat at 2 mg/kg measured at 0.25 to 168 hrs by liquid chromatography tandem mass spectrometry analysis. It counts as ADME, organism-based. Particulars: in vivo, time 0.25-168 hrs.
A short description of series [6]: Clearance in rat at 1 mg/kg, iv measured after 0.083 hrs by liquid chromatography tandem mass spectrometry analysis. In kind it is ADME, organism-based. Particulars: in vivo.
The nature of series [7]: Half life in mouse at 1 mg/kg, iv measured after 0.083 hrs by liquid chromatography tandem mass spectrometry analysis. In kind it is ADME, organism-based. Particulars: in vivo.
The nature of series [8]: Half life in monkey at 0.5 mg/kg, iv measured after 0.083 hrs by liquid chromatography tandem mass spectrometry analysis. In kind it is ADME, organism-based, Macaca mulatta. Particulars: rhesus monkey, in vivo.
Series [9] is described as follows: Cmax in iv dosed rat. It counts as ADME, organism-based. The arrangement: route iv. The conditions noted are these: in vivo.
Series [10] is described as follows: Tmax in iv dosed rat. It counts as ADME, organism-based. The conditions noted are these: in vivo.
Series [11] can be described thus: AUC in iv dosed rat. It counts as ADME, organism-based. Further details: route iv. The conditions noted are these: in vivo.
Series [12] in a line: Half life in iv dosed rat. In kind it is ADME, organism-based. Particulars: in vivo.
Series [13] is described as follows: Bioavilability in iv dosed rat. In kind it is ADME, organism-based. The conditions noted are these: in vivo.
A short description of series [14]: Half life in Sprague-Dawley rat at 5 mg/kg, po measured at 0.083 to […] by Liquid chromatography coupled with tandem mass spectrometry analysis. It counts as ADME, organism-based. The conditions noted are these: in vivo, time 0.083-0.25 hrs.
Series [15] can be described thus: Oral bioavailability in Sprague-Dawley rat at 5 mg/kg measured at 0.083 to […] by Liquid chromatography coupled with tandem mass spectrometry analysis. The conditions noted are these: in vivo, time 0.083-0.25 hrs. In kind it is ADME, organism-based.
Series [16] can be described thus: Cmax in rat at 10 mg/kg, po measured after 24 hrs by LC/MS/MS analysis. In kind it is ADME, organism-based. Further details: dose 10 mg/kg, time 24 hrs, route po. Particulars: in vivo.
Series [17] in a line: Cmax in dog at 3 mg/kg, po measured after 24 hrs by LC/MS/MS analysis. Further details: time 24 hrs, dose 3 mg/kg, route po. Particulars: in vivo. It counts as ADME, organism-based, Canis lupus familiaris.
The nature of series [18]: Cmax in Cynomolgus monkey at 10 mg/kg, po measured after 24 hrs by LC/MS/MS analysis. Further details: dose 10 mg/kg, time 24 hrs, route po. The conditions noted are these: in vivo. In kind it is ADME, organism-based, Macaca fascicularis.
The nature of series [19]: Tmax in rat at 10 mg/kg, po measured after 24 hrs by LC/MS/MS analysis. In kind it is ADME, organism-based. The conditions noted are these: in vivo.
Series [20] in a line: Tmax in dog at 3 mg/kg, po measured after 24 hrs by LC/MS/MS analysis. It counts as ADME, organism-based, Canis lupus familiaris. The conditions noted are these: in vivo.
A short description of series [21]: Tmax in Cynomolgus monkey at 10 mg/kg, po measured after 24 hrs by LC/MS/MS analysis. It counts as ADME, organism-based, Macaca fascicularis. Particulars: in vivo.
A short description of series [22]: AUC in rat at 10 mg/kg, po measured after 24 hrs by LC/MS/MS analysis. The conditions noted are these: in vivo. Further details: dose 10 mg/kg, time 24 hrs, route po. It counts as ADME, organism-based.
Series [23] is described as follows: AUC in rat at 1 mg/kg, iv measured after 24 hrs by LC/MS/MS analysis. It counts as ADME, organism-based. Further details: dose 1 mg/kg, time 24 hrs, route iv. The conditions noted are these: in vivo.
Series [24] is described as follows: AUC in dog at 3 mg/kg, po measured after 24 hrs by LC/MS/MS analysis. In kind it is ADME, organism-based, Canis lupus familiaris. The arrangement: dose 3 mg/kg, time 24 hrs, route po. Particulars: in vivo.
Series [25] in a line: AUC in Cynomolgus monkey at 10 mg/kg, po measured after 24 hrs by LC/MS/MS analysis. Further details: dose 10 mg/kg, time 24 hrs, route po. Particulars: in vivo. In kind it is ADME, organism-based, Macaca fascicularis.
A short description of series [26]: Half life in rat at 10 mg/kg, po measured after 24 hrs by LC/MS/MS analysis. In kind it is ADME, organism-based. The conditions noted are these: in vivo.
Series [27] in a line: Half life in rat at 1 mg/kg, iv measured after 24 hrs by LC/MS/MS analysis. Particulars: in vivo. In kind it is ADME, organism-based.
Series [28] in a line: Half life in dog at 3 mg/kg, po measured after 24 hrs by LC/MS/MS analysis. Particulars: in vivo. In kind it is ADME, organism-based, Canis lupus familiaris.
Series [29] can be described thus: Half life in Cynomolgus monkey at 10 mg/kg, po measured after 24 hrs by LC/MS/MS analysis. In kind it is ADME, organism-based, Macaca fascicularis. The conditions noted are these: in vivo.
The nature of series [30]: Clearance in rat at 1 mg/kg, iv measured after 24 hrs by LC/MS/MS analysis. It counts as ADME, organism-based. The conditions noted are these: in vivo.
Series [31] can be described thus: Clearance in dog at 3 mg/kg, po measured after 24 hrs by LC/MS/MS analysis. It counts as ADME, organism-based, Canis lupus familiaris. Particulars: in vivo.
Series [32] in a line: Clearance in Cynomolgus monkey at 10 mg/kg, po measured after 24 hrs by LC/MS/MS analysis. It counts as ADME, organism-based, Macaca fascicularis. The conditions noted are these: in vivo.
The nature of series [33]: Volume of distribution in rat at 1 mg/kg, iv measured after 24 hrs by LC/MS/MS analysis. In kind it is ADME, organism-based. Particulars: in vivo.
Series [34] is described as follows: Volume of distribution in dog at 3 mg/kg, po measured after 24 hrs by LC/MS/MS analysis. In kind it is ADME, organism-based, Canis lupus familiaris. Particulars: in vivo.
The nature of series [35]: Volume of distribution in Cynomolgus monkey at 10 mg/kg, po measured after 24 hrs by LC/MS/MS analysis. The conditions noted are these: in vivo. In kind it is ADME, organism-based, Macaca fascicularis.
The nature of series [36]: Oral bioavailability in rat at 10 mg/kg measured after 24 hrs by LC/MS/MS analysis. In kind it is ADME, organism-based. The conditions noted are these: in vivo.
Series [37] can be described thus: Oral bioavailability in rat at 1 mg/kg measured after 24 hrs by LC/MS/MS analysis. It counts as ADME, organism-based. Particulars: in vivo.
Series [38] is described as follows: Oral bioavailability in dog at 3 mg/kg measured after 24 hrs by LC/MS/MS analysis. In kind it is ADME, organism-based, Canis lupus familiaris. The conditions noted are these: in vivo.
Series [39] can be described thus: Oral bioavailability in Cynomolgus monkey at 10 mg/kg measured after 24 hrs by LC/MS/MS analysis. The conditions noted are these: in vivo. It counts as ADME, organism-based, Macaca fascicularis.

Each structure is given as a SMILES string.

In series [1], `CS(=O)(=O)Nc1cccc(NC(=O)CN2CCN(C(=O)C[C@H](N)Cc3ccccc3F)[C@H](Cc3ccccc3)C2)c1` showed a bioavailability of less than 1%.
In series [2], `N[C@@H](CC(=O)N1CCSC1)Cc1cc(F)c(F)cc1F` had a half-life of 1.1 h. This compound also registered a bioavailability in series [1] of 3%.
As for `CC#CCn1c(N2CCC[C@@H](N)C2)nc2c1c(=O)n(Cc1nc3cc(F)ccc3s1)c(=O)n2C`, in [2], the half-life was 7.3 h.
`N[C@H]1C[C@@H](N2CC3=C(C2)CS(=O)(=O)C3)CO[C@@H]1c1cc(F)ccc1F`: the half-life in series [3] was 52.8 h; in series [4] it was 28 h; in series [7], 44.4 h; in series [8], 61.1 h. The compound further had a bioavailability in series [5] of 91%. In [6], this compound had a clearance of 19 mL/min/kg.
For the compound `N[C@H]1C[C@@H](N2Cc3nn4c(C(F)(F)F)cc(C(F)(F)F)nc4c3C2)CO[C@@H]1c1cc(F)ccc1F`, the half-life in series [2] and in [12] was 25.4 h in each case. Also, the bioavailability in series [1] and in series [13] was 71% each time. This compound gave a Cmax in series [9] of 119 ng/mL. For the same compound, the Tmax in [10] is 5.3 h. Besides, in series [11], the AUC came out at 3700 ng·h/mL.
`N#Cc1ccc(F)cc1Cn1c(N2CCC[C@@H](N)C2)nc2cc(-c3cccnc3)sc2c1=O`: the half-life in series [14] was 16.4 h. This compound had a bioavailability in series [15] of 94%.
For `Cn1c(=O)cc(N2CCC[C@@H](N)C2)n(Cc2ccccc2C#N)c1=O` [ALOGLIPTIN], the Cmax was 393 ng/mL in series [16], 447 ng/mL in [17] and 3210 ng/mL in [18]. For the same compound, the Tmax worked out at 2.3 h in [19], 0.4 h in series [20] and 1 h in series [21]. Besides, the AUC at 24 h is 1200 ng·h/mL in [22], 260 ng·h/mL in [23], 1600 ng·h/mL in series [24] and 16600 ng·h/mL in series [25]. Besides, the half-life was 2.8 h in series [26], 1.4 h in series [27], 3 h in series [28] and 5.6 h in series [29]. In series [30], this compound displayed a clearance of 49 mL/min/kg. Further, the CL/F came out at 23 mL/min/kg in series [31] and 8.8 mL/min/kg in [32]. Besides, the Vd in series [33] was 3.5 L/kg; in series [34], 3.5 L/kg; in [35], 2.6 L/kg. Besides, the bioavailability in [36] came out at 45%; in series [37], 86%; in series [38], 68%; in series [39], 87%.

The record behind these values is ChEMBL document CHEMBL5365448, “Development of Long-Acting Dipeptidyl Peptidase-4 Inhibitors: Structural Evolution and Long-Acting Determinants” (J Med Chem, 2023).
